Legend:
[1] = tested on: MCF-7 human breast cancer cells; test: MTT cell viability assay, MCF-7; type: cell-based; conditions: for IC50: Homo sapiens, MCF7, MTT, 72 h, mean ± SD of three experiments; for SI MCF-7: ratio of IC50 values for normal (MCF-10A) and cancer cells (MCF-7)
Experimental: (§1) The three cell lines adopted in this work (MCF-7, MDA-MB-231 and MCF-10A) were obtained from the American Type Culture Collection (ATCC, Manassas, VA, USA). MCF-7 human breast cancer cells were cultured in Dulbecco’s modified Eagle’s medium/nutrient mixture Ham F-12 (DMEM/F12), added with 10% fetal bovine serum (FBS) and 100 U mL^−1 penicillin/streptomycin. MDA-MB-231 human breast cancer cells were maintained in DMEM/F12 added with 5% FBS, 1% L-glutamine and 100 U mL^−1 penicillin/streptomycin. MCF-10A human mammary epithelial cells were cultured in DMEM/F12 medium added with 5% horse serum (HS, Thermo Fisher Scientific, Milan, Italy), 100 U mL^−1 penicillin/streptomycin, 0.5 mg mL^−1 hydrocortisone, 20 ng mL^−1 human epidermal growth factor (hEGF), 10 mg mL^−1 insulin, and 0.1 mg mL^−1 cholera enterotoxin (Sigma–Aldrich, Milan, Italy). Cells were cultured at 37 °C in a humidified atmosphere (95% air and 5% CO2) and periodically screened for checking contamination.
(§2) The 3-(4,5-dimethylthiazol-2-y1)-2,5-diphenyltetrazolium Bromide (MTT, Sigma–Aldrich, Milan, Italy) assay was used for determining cell viability. Cells were seeded on forty-eight well plates and cultured in a complete medium. Next, cells were serum-deprived (24 h). Then, cells were exposed to the tested compounds in phenol-red-free medium added with 1% of serum for 72 h. After medium removal, MTT solution was added to each well (0.5 mg/mL) and incubated at 37 °C (2 h). Cells were lysed (DMSO), and the optical density was measured (570 nm) using a microplate reader. Mean absorbance was reported as a percentage versus control, and IC50 values were calculated using GraphPad Prism 8 software (version 8.4.3., GraphPad Inc., San Diego, CA, USA). The selectivity index was obtained by the ratio of IC50 values calculated for normal and cancer cells. Data represent three independent experiments; standard deviations (SD) were reported.

[2] = tested on: microtubule network in MDA-MB-231 cells; test: β-tubulin immunofluorescence; type: cell-based, human; conditions: 24 h
Experimental: (§3) Cells grown on glass coverslips in full medium were serum-deprived for 24 h and exposed to 1 for 24 h at its IC50 value concentration. Cells were PBS-washed and fixed (cold methanol, 15 min, −20 °C), then primary antibody in blocking solution was added (4 °C/overnight), as described. The mouse anti-Bid (sc-373939) and anti-β-Actin (69879) and the rabbit anti-β Tubulin (9104) were obtained from Santa Cruz Biotechnology and employed at a 1:100 dilution. Coverslips were washed thrice with PBS, then the secondary antibody Alexa Fluor® 568 conjugate goat-anti-mouse and Alexa Fluor® 488 conjugate goat-anti-rabbit (1:500, Thermo Fisher Scientific, Waltham, MA, USA) was added. Nuclei were DAPI (Sigma Aldrich, Mila, Italy) stained (10 min, 0.2 μg/mL) and PBS washed thrice. For mitochondrial staining, cells were pre-incubated with prewarmed (37 °C) MitoTracker® Deep Red FM probe solution (MitoTracker® Mitochondrion-Selective Probes, Invitrogen European Headquarters, Paisley PA4 9RF, UK) for 20 min (fluorescence excitation = 644, fluorescence emission = 665). A fluorescence microscope (Leica DM 6000) and LAS-X software (Leica Application Suite X, 3.5.7.23225) were used to acquire and process all images.

tubulin = test: In vitro tubulin polymerization assay; type: biochemical; conditions: for final OD350 value of tubulin polymerization: control reaction (DMSO) about 0.41
Experimental: The tubulin polymerization inhibition was detected using the in vitro Tubulin Polymerization Assay Kit (EMD Millipore Corporation, Burlington, MA, USA), following the procedure previously published. Briefly, polymerization reactions were performed in 70 µL final volumes (60 µL of the 60 µM tubulin in 1xPB-GTP and 10 µL of the test substance dissolved in 1xPB-GTP). Paclitaxel and Vinblastine (both at 10 µM) and 1 (1 µM) were dissolved in DMSO. The turbidity variation was measured every 30 s at 350 nm for 90 min. Turbidity (absorbance) readings were used to determine the extent of polymerization [% inhibition = (1 − A350 sample/A350 control) × 100].

[3] = tested on: MDA-MB-231 human breast cancer cells; test: MTT cell viability assay, MDA-MB-231; type: cell-based; conditions: for IC50: Homo sapiens, MDA-MB-231, MTT, 72 h, mean ± SD of three experiments
Experimental: as §1, §2

[4] = tested on: MCF-10A human mammary epithelial cells; test: MTT cell viability assay, MCF-10A; type: cell-based; conditions: 72 h, normal cells, mean ± SD of three experiments
Experimental: as §1, §2

Bid = Bid immunofluorescence and mitochondria staining; type: cell-based, human; conditions: MDA-MB-231 cells, 0.3 µM, 24 h
Experimental: as §3

Balb/c mice = test: In vivo safety study, one-week intraperitoneal administration; set-up: species or system mouse; conditions: 20 mg/kg i.p.
Experimental: Animals: The study utilized male Balb/c mice aged 6–8 weeks, with weights ranging from 22 to 26 g. These mice were sourced from a reputable supplier and maintained in a certified pathogen-free facility. They were housed in polycarbonate cages under controlled environmental conditions (temperature: 20–22 °C; humidity: 40–60%) with a 12 h light/dark cycle. Mice had ad libitum access to filtered water and a standard rodent chow diet, ensuring their nutritional needs were met throughout the study.
Preparation of Test Item: The investigational solution that contains the compound 1 was prepared before administration to ensure its stability and efficacy. The preparation involved dissolving compound 1 in a solvent mixture comprising 5% ethanol and Cremophor, diluted in 95% phosphate-buffered saline (PBS). […] All solutions were prepared in a sterile environment to minimize the risk of contamination.
Experimental Design: Mice were randomly assigned to one of two experimental groups to eliminate bias in treatment effects. Group 1 (negative control) consisted of six mice that received intraperitoneal injections of the vehicle solvent (5% ethanol–Cremophor in 95% PBS). Group 2 (compound 1 treatment group) comprised seven mice receiving compound 1 at a dosage of 20 mg/kg body weight, administered via intraperitoneal injection. The dosage was selected based on preliminary dose–response studies ensuring safety and efficacy.
Treatment Protocol: The treatment regimen involved administering injections every two days over a one-week period, culminating in a total of three injections per mouse. This schedule was designed to maintain consistent therapeutic levels of compound 1 in the bloodstream, providing sufficient time for both pharmacological effects and assessment of any potential adverse reactions.
Assessment Parameters: Behavioral observations were meticulously recorded on a daily basis throughout the treatment period. Trained personnel monitored the mice for signs of toxicity or any deviations from normal behavior, including changes in activity levels, grooming patterns, and feeding behavior [35]. Body weight was measured at baseline prior to treatment, immediately before each injection, and at the conclusion of the treatment period to assess any potential effects of compound 1 on growth and overall health.
After the treatment phase, mice were humanely euthanized using approved methods to minimize distress. Major organs, including the spleen, liver, lungs, brain, heart, and kidneys, were carefully excised, weighed, and subjected to morphological examination to identify any structural abnormalities or pathological changes. The organ coefficients were calculated using the following formula:Organ Coefficient (mg/10 g) = 10 × […]/weight of the mouse.
Blood samples were collected post-euthanasia using heparinized tubes to prevent coagulation. Following collection, samples were centrifuged at 1500 rpm for 7 min to separate the plasma, which was then used for biochemical analysis. A clinical chemistry analyzer measured various parameters, including transaminases (AST, ALT), creatinine, uric acid, and key electrolytes (sodium, potassium, chloride, calcium, and phosphorus), alongside alkaline phosphatase levels. Hematological evaluations were performed, including red blood cell (RBC) counts, hemoglobin (HB) levels, hematocrit (HCT), mean corpuscular hemoglobin (MCH), and white blood cell (WBC) counts.

caspase-9 = test: Caspase-Glo 9 assay; type: cell-based, human; conditions: MDA-MB-231 cells, 0.3 µM, 24 h, versus DMSO-treated cells
Experimental: (§4) Caspases-3/7, -8, and -9 activities were determined using the Caspase-Glo® 3/7, 8, and 9 Assay Systems (Promega Corporation, Madison, WI, USA) as previously described.

caspase-8 = test: Caspase-Glo 8 assay; type: cell-based, human; conditions: MDA-MB-231 cells, 0.3 µM, 24 h, versus DMSO-treated cells
Experimental: as §4

[5] = tested on: actin network in MDA-MB-231 cells; test: β-actin immunofluorescence; type: cell-based, human; conditions: 0.3 µM, 24 h
Experimental: as §3

MDA-MB-231 cells = test: TUNEL assay (nuclear DNA damage / apoptosis); type: cell-based, human; conditions: 0.3 µM, 24 h
Experimental: The TUNEL assay was used for apoptosis detection, according to the manufacturer’s instructions (CF^TM488A TUNEL Assay Apoptosis Detection Kit, Biotium, Hayward, CA, USA), with some modifications (ref). Shortly, cells were grown on glass coverslips, then treated with 1 at its IC50 value. After that, they were PBS washed thrice, then methanol-fixed (−20 °C, 15 min). Cells were fixed and incubated with the enzyme and, next, counterstained with DAPI (0.2 mg mL^−1) (10 min, room temperature). Cells were washed three times with cold PBS; the mounting solution was added and observed and imaged using a fluorescence microscope (Leica DM6000, Leica Microsystems Srl, Milan, I-20090, Italy; 20× magnification) with excitation/emission wavelength maxima of 490 nm/515 nm (CF^TM488A) or 350 nm/460 nm (DAPI). Images represent two independent experiments, and representative fields were shown.

caspase-3/7 = test: Caspase-Glo 3/7 assay; type: cell-based, human; conditions: MDA-MB-231 cells, 0.3 µM, 24 h, versus DMSO-treated cells
Experimental: as §4

[6] = Hydrolytic stability test by 1H NMR; type: physicochemical
Experimental: ^1H NMR spectra were recorded at 298 K on a Bruker Avance 400 spectrometer operating at 400 MHz (^1H) and referred to the residual proton deuterated solvent peaks (^1H: (CD3)2SO, δ 2.50).
The hydrolytic chemical stability is an important step in early drug discovery for ensuring the potential development of compounds useful in therapy. […]

SMILES: CC(=O)O[C@H]1C(=O)[C@@]2(C)[C@H]([C@H](OC(=O)c3ccccc3)[C@]3(O)C[C@H](OC(=O)[C@H](O)[C@@H](NC(=O)c4ccccc4)c4ccccc4)C(C)=C1C3(C)C)[C@]1(OC(C)=O)CO[C@@H]1C[C@@H]2O [Paclitaxel]
- IC50 [1]: 0.013 µM
- SI MCF-7 [1]: 33.7
- microtubule network morphology ([2]; 1 µM): massive formation of tubulin bundles and bulker fibers
- final OD350 value of tubulin polymerization (tubulin; 10 µM): about 0.46
- IC50 [3]: 0.019 µM
- IC50 [4]: 0.64 µM

SMILES: CC[C@]1(O)C[C@@H]2CN(CCc3c([nH]c4ccccc34)[C@@](C(=O)OC)(c3cc4c(cc3OC)N(C)[C@H]3[C@@](O)(C(=O)OC)[C@H](OC(C)=O)[C@]5(CC)C=CCN6CC[C@]43[C@@H]65)C2)C1 [Vinblastine]
- IC50 [1]: 0.0368 µM
- SI MCF-7 [1]: 0.13
- microtubule network morphology ([2]; 1 µM): accumulate in disorganized dotted structures (i.e., crystals)
- effect on tubulin polymerization reaction (tubulin; 10 µM): strongly inhibited
- time to reach the steady state of tubulin polymerization (tubulin; 10 µM): 35 to 40 min
- final OD350 value of tubulin polymerization (tubulin; 10 µM): about 0.2
- IC50 [3]: 0.13 µM
- IC50 [4]: 0.0172 µM

SMILES: Cc1cc(C=NN=Cc2cc(C)c3[nH]c4ccc(Br)cc4c3c2C)c(C)c2c1[nH]c1ccc(Br)cc12 [Compound 1, N,N’-bis-(6-bromo-1,4-dimethyl-9H-carbazol-3-ylmethylene)-hydrazine]
- Bid localization (Bid): net translocation of Bid into the mitochondrial compartment
- behavior (Balb/c mice; one week): normal behavioral patterns
- lung coefficient versus negative control (Balb/c mice; one week): notable increase
- toxic effects related to treatment (Balb/c mice; one week): no observable toxic effects
- body weight change versus negative control (Balb/c mice; one week, p > 0.05): no significant differences
- hematological parameters (WBC, RBC, HB, HCT, MCV, MCH, MCHC, platelet counts) versus control (Balb/c mice; one week, p > 0.05): no significant differences
- organ weights (spleen, liver, brain, heart, kidney, lung) versus negative control (Balb/c mice; one week, p > 0.05): no significant differences
- serum AST, ALT, creatinine, uric acid and electrolyte profiles versus control (Balb/c mice; one week, p > 0.05): comparable
- organ weight coefficient Brain (Balb/c mice; three injections over one week): 0.13 ± 0.03 10× g (organ)/g(animal)
- organ weight coefficient Heart (Balb/c mice; three injections over one week): 0.06 ± 0.01 10× g (organ)/g(animal)
- organ weight coefficient Kidney (Balb/c mice; three injections over one week): 0.07 ± 0.01 10× g (organ)/g(animal)
- organ weight coefficient Liver (Balb/c mice; three injections over one week): 0.54 ± 0.03 10× g (organ)/g(animal)
- organ weight coefficient Lung (Balb/c mice; three injections over one week): 0.11 ± 0.01 10× g (organ)/g(animal)
- organ weight coefficient Spleen (Balb/c mice; three injections over one week): 0.07 ± 0.02 10× g (organ)/g(animal)
- increase of caspase-9 activity (caspase-9): 40%
- IC50 [1]: 0.6 ± 0.3 µM
- SI MCF-7 [1]: >166.7
- increase of caspase-8 activity (caspase-8): about 60%
- microtubule network morphology ([2]; 0.3 µM): net disorganization of the microtubule network
- actin network morphology [5]: formation of thicker actin bundles
- TUNEL staining (nuclear DNA damage) (MDA-MB-231 cells): TUNEL-positive
- effect on tubulin polymerization reaction (tubulin; 1 µM): acts as a microtubule stabilizer
- final OD350 value of tubulin polymerization (tubulin; 1 µM): 0.48
- increase of caspase-3 and -7 activity (caspase-3/7): about 70%
- IC50 [3]: 0.3 ± 0.2 µM
- SI MDA-MB-231 ([3]; ratio of IC50 values for normal (MCF-10A) and cancer cells (MDA-MB-231)): >333.3
- hydrolytic stability (1H NMR spectra changes) ([6]; DMSO-d6/D2O (90:10), 37 °C, 24 h): no changes were recorded
- stability in the solid state ([6]; solid state): stable in the solid state even years after synthesis
- IC50 [4]: > 100 µM

SMILES: Cc1c2ccncc2c(C)c2c1[nH]c1ccccc12 [Ellipticine]
- IC50 [1]: 1.3 ± 0.2 µM
- SI MCF-7 [1]: 0.9
- IC50 [3]: 1.9 ± 0.1 µM
- IC50 [4]: 1.2 ± 0.3 µM

— publication PMC12030284, “Anti-Breast Cancer Properties and In Vivo Safety Profile of a Bis-Carbazole Derivative” (Pharmaceutics, 2025)
